According to US20250075056A1, “IMIDAZOLYSIS OF POLYESTERS AND POLYURETHANES” (The Board of Trustees of The University of Alabama, priority 2023, published 2025):
Where two headings read alike, the source gives them in different places.

How the values were obtained:
[1] = imidazole reagent, literature refs 58-60, cited from earlier work
[2] = Solubility of TBIs in common solvents; assay type: physicochemical
[3] = organic solvent or mixture, solvent Ethanol, read-out: Solubility in Ethanol
[4] = solvent DI Water, read-out: Solubility in DI Water

Compound | pKa [1] | solubility [2, 3] [µg/mL] | solubility [2, 4] [µg/mL] | also measured
Cc1ncc[nH]1 [2a, 2-Methyl imidazole] | 7.85-8.10 | – | – | pKa ([1]; listed as 2-methylimidazole): 8.1
CCc1nc(C)cn1C(=O)c1ccc(C(=O)n2cc(C)nc2CC)cc1 [7b] | – | < 1000 | > 1000 | –
Cc1nc(C)n(C(=O)c2ccc(C(=O)n3c(C)nc(C)c3C)cc2)c1C [6b] | – | > 1000 | > 1000 | –
CCc1ncc[nH]1 [3a, 2-Ethyl imidazole] | 7.99-8 | – | – | –
O=C(c1ccc(C(=O)n2ccnc2)cc1)n1ccnc1 [1b, 1,1′-(1,4-Phenylene)bis[1-(1H-imidazol-1-yl)methanone]] | – | > 1000 | > 1000 | Solubility on contact with H2O ([2]; DI H2O): solubilize
c1ccc(-c2ncc[nH]2)cc1 [8a, 2-Phenyl imidazole] | 6.44 | – | – | –
CC(C)c1ncc[nH]1 [5a, 2-Isopropyl imidazole] | 7.97 | – | – | –
Cc1cn(C(=O)c2ccc(C(=O)n3cnc(C)c3)cc2)cn1 [4b] | – | > 1000 | > 1000 | –
CC(C)c1nccn1C(=O)c1ccc(C(=O)n2ccnc2C(C)C)cc1 [5b] | – | < 1000 | < 1000 | –
Cc1nccn1C(=O)c1ccc(C(=O)n2ccnc2C)cc1 [2b] | – | > 1000 | > 1000 | –
Imidazole [1a] | ~7 | – | – | –
CCc1nccn1C(=O)c1ccc(C(=O)n2ccnc2CC)cc1 [3b] | – | > 1000 | > 1000 | –
CCc1nc(C)c[nH]1 [7a, 2-Ethyl-4-methyl imidazole] | 8.68 | – | – | –
O=C(c1ccc(C(=O)n2ccnc2-c2ccccc2)cc1)n1ccnc1-c1ccccc1 [8b] | – | < 1000 | < 1000 | Solubility in typical aromatic organic solvents ([2]; e.g., toluene, xylene): moderately soluble
Cc1nc(C)c(C)[nH]1 [6a, 2,4,5-Trimethyl imidazole] | 8.92 | – | – | –
Cc1c[nH]cn1 [4a, 4-Methyl imidazole] | 7.69-7.80 | – | – | –
